Measurements published in US10231954B2, “Neurodegenerative therapies” (LYTIX BIOPHARMA AS, priority 2014, dated 2019).
Read-outs that look alike come from different tables or passages of the source.

Assays:
Format in all cases: biochemical
[1] = target: MKK1 (Homo sapiens, UniProt Q02750); assay: Kinase profiling MKK1; settings: for remaining activity at 100 µM: read-out: residual kinase activity, MKK1
Excerpt: (§1) Any value less that 25 is considered to be highly significant inhibition.

[2] = target: PRK2 (Homo sapiens, UniProt Q16513); assay: Kinase profiling PRK2; settings: for remaining activity at 100 µM: read-out: residual kinase activity, PRK2
Excerpt: as §1

[3] = target: PKCa (Homo sapiens, UniProt P17252); assay: Kinase profiling PKCa; settings: for remaining activity at 100 µM: read-out: residual kinase activity, PKCa
Excerpt: as §1

[4] = target: T1, PKD1 (Homo sapiens, UniProt Q15139); assay: Kinase profiling PKD1; settings: for remaining activity at 100 µM: read-out: residual kinase activity, PKD1
T1 sequence (Q15139 1-912): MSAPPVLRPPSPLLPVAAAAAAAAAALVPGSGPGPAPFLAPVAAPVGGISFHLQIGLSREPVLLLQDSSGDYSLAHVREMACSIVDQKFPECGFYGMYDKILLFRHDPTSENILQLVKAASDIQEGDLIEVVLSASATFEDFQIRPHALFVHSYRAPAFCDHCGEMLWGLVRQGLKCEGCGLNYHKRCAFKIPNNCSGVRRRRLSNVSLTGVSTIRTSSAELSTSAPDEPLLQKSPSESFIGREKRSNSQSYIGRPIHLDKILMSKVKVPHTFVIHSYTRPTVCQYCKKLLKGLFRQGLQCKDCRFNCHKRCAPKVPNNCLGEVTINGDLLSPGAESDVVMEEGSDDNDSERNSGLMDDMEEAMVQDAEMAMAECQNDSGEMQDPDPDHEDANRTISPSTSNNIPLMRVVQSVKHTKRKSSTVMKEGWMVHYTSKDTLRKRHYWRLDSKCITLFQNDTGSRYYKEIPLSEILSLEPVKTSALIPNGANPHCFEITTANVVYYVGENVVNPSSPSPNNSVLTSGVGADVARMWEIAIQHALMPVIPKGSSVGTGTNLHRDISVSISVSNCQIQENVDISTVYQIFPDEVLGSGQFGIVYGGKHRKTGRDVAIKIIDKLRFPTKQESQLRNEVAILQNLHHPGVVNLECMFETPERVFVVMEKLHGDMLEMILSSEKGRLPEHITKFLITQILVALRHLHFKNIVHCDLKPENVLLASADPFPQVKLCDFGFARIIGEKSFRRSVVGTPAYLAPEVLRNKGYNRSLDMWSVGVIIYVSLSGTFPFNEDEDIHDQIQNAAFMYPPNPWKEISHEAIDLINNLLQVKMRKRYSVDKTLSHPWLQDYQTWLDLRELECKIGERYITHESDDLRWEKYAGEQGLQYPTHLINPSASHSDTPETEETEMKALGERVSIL
Excerpt: as §1

[5] = target: CAMKKb (Homo sapiens, UniProt Q96RR4); assay: Kinase profiling CAMKKb; settings: for remaining activity at 100 µM: read-out: residual kinase activity, CAMKKb
Excerpt: as §1

[6] = target: PLK1 (Homo sapiens, UniProt P53350); assay: Kinase profiling PLK1; settings: for remaining activity at 100 µM: read-out: residual kinase activity, PLK1
Excerpt: as §1

[7] = system: CK2; assay: Kinase profiling CK2; settings: 100 micromolar inhibitor concentration; 100 is no change
Excerpt: as §1

[8] = target: T2, TBK1 (Homo sapiens, UniProt Q9UHD2); assay: Kinase profiling TBK1; settings: for remaining activity at 100 µM: read-out: residual kinase activity, TBK1
T2 sequence (Q9UHD2 1-729): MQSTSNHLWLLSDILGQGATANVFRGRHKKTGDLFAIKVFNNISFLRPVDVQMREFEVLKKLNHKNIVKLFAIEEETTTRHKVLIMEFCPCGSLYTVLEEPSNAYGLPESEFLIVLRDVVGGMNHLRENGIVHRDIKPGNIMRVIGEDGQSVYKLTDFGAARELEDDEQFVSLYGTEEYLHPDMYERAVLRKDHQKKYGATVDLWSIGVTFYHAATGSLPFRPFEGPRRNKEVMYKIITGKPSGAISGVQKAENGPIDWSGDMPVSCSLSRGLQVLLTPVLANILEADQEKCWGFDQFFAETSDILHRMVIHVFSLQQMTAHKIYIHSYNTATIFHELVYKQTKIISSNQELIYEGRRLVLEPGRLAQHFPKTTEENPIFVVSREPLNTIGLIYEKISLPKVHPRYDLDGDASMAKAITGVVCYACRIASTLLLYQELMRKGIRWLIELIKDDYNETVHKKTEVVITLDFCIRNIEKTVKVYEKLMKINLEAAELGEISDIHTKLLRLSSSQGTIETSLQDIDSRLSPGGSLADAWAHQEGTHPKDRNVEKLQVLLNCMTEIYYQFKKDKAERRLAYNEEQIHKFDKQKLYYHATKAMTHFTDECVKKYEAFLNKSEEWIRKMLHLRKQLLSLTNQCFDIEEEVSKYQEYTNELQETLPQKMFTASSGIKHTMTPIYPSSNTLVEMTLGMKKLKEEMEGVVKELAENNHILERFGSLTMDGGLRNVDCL
Excerpt: as §1

[9] = target: SRPK1 (Homo sapiens, UniProt Q96SB4); assay: Kinase profiling SRPK1; settings: for remaining activity at 100 µM: read-out: residual kinase activity, SRPK1
Excerpt: as §1

[10] = target: PAK4 (Homo sapiens, UniProt O96013); assay: Kinase profiling PAK4; settings: for remaining activity at 100 µM: read-out: residual kinase activity, PAK4
Excerpt: as §1

[11] = target: RIPK2 (Homo sapiens, UniProt O43353); assay: Kinase profiling RIPK2; settings: for remaining activity at 100 µM: read-out: residual kinase activity, RIPK2
Excerpt: as §1

[12] = target: BTK (Homo sapiens, UniProt Q06187); assay: Kinase profiling BTK; settings: for remaining activity at 100 µM: read-out: residual kinase activity, BTK
Excerpt: as §1

[13] = target: EPH-A2 (Homo sapiens, UniProt P29317); assay: Kinase profiling EPH-A2; settings: for remaining activity at 100 µM: read-out: residual kinase activity, EPH-A2
Excerpt: as §1

[14] = 100 micromolar inhibitor concentration, 100 is no change

RIPK2, sequence (O43353 whole entry, species assumed): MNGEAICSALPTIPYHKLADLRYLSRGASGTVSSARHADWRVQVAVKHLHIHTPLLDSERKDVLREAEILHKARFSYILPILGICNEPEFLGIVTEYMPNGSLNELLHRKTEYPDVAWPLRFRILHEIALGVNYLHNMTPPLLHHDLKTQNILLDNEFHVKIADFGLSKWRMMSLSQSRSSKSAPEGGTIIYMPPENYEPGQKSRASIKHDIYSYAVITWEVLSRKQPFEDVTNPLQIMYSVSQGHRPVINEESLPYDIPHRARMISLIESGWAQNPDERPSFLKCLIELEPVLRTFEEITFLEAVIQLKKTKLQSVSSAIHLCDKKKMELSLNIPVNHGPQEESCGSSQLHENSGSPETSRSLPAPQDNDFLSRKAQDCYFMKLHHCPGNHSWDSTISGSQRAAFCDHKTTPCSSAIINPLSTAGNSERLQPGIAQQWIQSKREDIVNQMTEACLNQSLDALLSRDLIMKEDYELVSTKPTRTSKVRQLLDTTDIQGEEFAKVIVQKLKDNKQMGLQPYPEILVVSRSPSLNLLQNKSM
BTK, sequence (Q06187 whole entry, species assumed): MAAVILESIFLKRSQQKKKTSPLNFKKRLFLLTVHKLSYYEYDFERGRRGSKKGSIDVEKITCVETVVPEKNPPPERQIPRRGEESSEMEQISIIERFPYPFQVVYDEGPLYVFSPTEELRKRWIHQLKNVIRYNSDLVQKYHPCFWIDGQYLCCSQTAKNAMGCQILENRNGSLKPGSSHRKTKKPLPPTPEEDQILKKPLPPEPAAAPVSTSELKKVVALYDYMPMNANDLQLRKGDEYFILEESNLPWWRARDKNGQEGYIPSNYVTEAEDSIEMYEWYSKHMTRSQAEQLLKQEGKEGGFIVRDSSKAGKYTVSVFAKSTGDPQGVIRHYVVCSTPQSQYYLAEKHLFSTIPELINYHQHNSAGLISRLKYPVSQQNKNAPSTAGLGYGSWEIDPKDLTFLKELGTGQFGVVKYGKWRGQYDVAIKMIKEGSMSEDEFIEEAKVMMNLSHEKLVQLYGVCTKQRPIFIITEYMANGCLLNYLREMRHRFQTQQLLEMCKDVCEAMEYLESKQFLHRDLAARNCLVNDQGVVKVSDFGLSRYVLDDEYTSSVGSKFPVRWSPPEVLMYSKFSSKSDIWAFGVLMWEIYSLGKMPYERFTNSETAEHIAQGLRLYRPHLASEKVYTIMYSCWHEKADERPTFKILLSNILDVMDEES
CAMKKb, sequence (Q96RR4 whole entry, species assumed): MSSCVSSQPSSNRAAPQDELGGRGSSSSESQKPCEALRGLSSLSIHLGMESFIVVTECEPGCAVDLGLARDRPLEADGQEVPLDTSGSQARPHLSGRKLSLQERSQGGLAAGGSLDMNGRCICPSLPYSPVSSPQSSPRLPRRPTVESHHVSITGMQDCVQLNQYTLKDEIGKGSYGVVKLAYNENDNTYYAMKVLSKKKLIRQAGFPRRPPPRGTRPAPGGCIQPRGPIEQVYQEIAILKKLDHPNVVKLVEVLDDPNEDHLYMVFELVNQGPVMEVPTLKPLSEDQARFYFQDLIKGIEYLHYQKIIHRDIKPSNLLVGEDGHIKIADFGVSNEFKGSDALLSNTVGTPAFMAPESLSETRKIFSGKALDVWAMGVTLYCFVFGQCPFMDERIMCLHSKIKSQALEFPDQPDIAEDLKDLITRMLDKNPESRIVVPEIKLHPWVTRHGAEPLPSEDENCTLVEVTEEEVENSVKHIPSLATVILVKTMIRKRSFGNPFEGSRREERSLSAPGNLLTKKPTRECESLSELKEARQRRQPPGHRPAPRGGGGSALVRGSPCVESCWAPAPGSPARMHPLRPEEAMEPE
PLK1, sequence (P53350 whole entry, species assumed): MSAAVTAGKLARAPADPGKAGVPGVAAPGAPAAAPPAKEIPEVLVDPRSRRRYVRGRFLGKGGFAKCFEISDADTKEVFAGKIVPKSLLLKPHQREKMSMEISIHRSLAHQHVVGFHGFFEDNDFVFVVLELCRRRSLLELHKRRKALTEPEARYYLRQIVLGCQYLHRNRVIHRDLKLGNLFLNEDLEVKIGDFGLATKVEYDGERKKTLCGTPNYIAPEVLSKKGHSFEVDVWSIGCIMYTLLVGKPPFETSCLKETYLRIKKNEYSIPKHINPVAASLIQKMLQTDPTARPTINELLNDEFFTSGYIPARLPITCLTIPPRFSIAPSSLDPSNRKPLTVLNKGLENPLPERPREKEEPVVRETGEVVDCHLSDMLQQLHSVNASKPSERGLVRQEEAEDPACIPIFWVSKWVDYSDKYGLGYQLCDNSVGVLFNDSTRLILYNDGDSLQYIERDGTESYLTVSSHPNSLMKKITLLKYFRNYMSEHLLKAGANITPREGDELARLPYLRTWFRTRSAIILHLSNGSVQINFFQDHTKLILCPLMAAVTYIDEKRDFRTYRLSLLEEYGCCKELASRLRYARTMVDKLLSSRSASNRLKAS
PRK2, sequence (Q16513 whole entry, species assumed): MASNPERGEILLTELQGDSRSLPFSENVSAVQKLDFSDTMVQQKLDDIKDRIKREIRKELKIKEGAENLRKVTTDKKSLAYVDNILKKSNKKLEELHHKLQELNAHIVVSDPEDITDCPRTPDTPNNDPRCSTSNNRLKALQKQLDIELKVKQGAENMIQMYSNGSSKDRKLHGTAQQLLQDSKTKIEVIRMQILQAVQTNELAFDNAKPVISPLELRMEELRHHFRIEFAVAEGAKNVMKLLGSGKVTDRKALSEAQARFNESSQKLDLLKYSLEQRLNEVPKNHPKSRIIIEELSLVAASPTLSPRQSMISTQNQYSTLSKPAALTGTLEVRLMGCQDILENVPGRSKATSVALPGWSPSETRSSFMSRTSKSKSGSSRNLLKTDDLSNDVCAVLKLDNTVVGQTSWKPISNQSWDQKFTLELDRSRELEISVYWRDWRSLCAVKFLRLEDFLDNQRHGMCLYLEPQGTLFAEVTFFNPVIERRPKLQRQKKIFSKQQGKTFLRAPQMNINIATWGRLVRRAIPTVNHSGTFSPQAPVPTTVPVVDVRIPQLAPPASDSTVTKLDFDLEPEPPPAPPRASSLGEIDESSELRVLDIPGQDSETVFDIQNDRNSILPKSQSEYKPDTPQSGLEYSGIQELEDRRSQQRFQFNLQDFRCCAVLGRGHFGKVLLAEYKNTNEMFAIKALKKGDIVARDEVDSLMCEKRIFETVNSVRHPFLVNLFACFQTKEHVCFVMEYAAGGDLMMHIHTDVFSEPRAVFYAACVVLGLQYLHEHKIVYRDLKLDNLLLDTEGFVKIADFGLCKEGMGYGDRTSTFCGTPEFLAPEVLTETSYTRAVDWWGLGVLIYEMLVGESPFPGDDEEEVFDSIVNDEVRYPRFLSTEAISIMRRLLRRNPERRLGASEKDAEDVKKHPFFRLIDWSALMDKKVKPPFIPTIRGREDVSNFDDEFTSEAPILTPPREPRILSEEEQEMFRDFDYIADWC
PAK4, sequence (O96013 whole entry, species assumed): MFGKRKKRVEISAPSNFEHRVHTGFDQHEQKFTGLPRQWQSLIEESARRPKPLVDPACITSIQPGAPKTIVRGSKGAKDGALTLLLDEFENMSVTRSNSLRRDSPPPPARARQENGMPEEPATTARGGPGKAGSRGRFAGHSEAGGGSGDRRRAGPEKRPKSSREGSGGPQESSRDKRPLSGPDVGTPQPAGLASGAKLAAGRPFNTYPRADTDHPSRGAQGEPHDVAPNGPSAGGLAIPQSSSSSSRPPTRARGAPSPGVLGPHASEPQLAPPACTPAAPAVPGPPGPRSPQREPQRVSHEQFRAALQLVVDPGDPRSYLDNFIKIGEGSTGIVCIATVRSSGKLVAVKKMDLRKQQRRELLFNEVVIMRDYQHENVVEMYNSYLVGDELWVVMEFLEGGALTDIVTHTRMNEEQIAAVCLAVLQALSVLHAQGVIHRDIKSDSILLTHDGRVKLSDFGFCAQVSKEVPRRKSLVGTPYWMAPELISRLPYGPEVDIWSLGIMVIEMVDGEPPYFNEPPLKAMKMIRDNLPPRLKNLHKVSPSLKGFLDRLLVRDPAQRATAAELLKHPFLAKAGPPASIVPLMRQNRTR
MKK1, sequence (Q02750 whole entry, species assumed): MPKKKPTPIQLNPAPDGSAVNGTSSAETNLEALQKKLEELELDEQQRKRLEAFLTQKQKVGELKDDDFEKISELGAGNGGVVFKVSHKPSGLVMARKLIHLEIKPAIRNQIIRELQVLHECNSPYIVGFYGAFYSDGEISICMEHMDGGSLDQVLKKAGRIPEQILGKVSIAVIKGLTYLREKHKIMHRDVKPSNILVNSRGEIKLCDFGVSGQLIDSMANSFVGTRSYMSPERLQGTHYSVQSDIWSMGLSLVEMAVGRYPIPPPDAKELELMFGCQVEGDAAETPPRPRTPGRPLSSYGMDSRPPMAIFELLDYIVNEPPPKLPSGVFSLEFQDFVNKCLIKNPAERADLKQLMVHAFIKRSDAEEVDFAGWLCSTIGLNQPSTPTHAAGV

SMILES	residual kinase activity, CK2 [7]	residual kinase activity, MKK1 [1, 14]	residual kinase activity, PRK2 [2, 14]	residual kinase activity, PKCa [3, 14]	residual kinase activity, PKD1 [4, 14]	residual kinase activity, CAMKKb [5, 14]	residual kinase activity, PLK1 [6, 14]	residual kinase activity, TBK1 [8, 14]	residual kinase activity, SRPK1 [9, 14]	residual kinase activity, PAK4 [10, 14]	residual kinase activity, RIPK2 [11, 14]	residual kinase activity, BTK [12, 14]	residual kinase activity, EPH-A2 [13, 14]	other results
CC(=O)Nc1nc2ccc([N+](=O)[O-])cc2s1 [Compound 13-10]	51													remaining activity at 100 µM [1, 14]: 62%; remaining activity at 100 µM [2, 14]: 93%; remaining activity at 100 µM [3, 14]: 93%; remaining activity at 100 µM [4, 14]: 82%; remaining activity at 100 µM [5, 14]: 73%; remaining activity at 100 µM [6, 14]: 96%; remaining activity at 100 µM [8, 14]: 89%; remaining activity at 100 µM [9, 14]: 62%; remaining activity at 100 µM [10, 14]: 86%; remaining activity at 100 µM [11, 14]: 27%; remaining activity at 100 µM [12, 14]: 96%; remaining activity at 100 µM [13, 14]: 65%
COC(=O)c1cccc(C(=O)Nc2nc3cc(OC)ccc3s2)c1 [Compound 03-108]	97	94	100	85	102	80	96	102	68	100	39	68	76	
COc1ccc2sc(NC(=O)c3ccccc3)nc2c1 [Compound 03-95]	78	92	84	53	92	54	77	100	42	107	40	75	91	
COC(=O)c1cccc(C(=O)Nc2nc3ccc(C(F)(F)F)cc3s2)c1 [Compound 03-105, Methyl 3-((6-(trifluoromethyl)benzo[d]thiazol-2-yl)carbamoyl)benzoate]	89													remaining activity at 100 µM [1]: 86%; remaining activity at 100 µM [2]: 109%; remaining activity at 100 µM [3]: 96%; remaining activity at 100 µM [4]: 90%; remaining activity at 100 µM [5]: 48%; remaining activity at 100 µM [6]: 101%; remaining activity at 100 µM [8]: 101%; remaining activity at 100 µM [9]: 54%; remaining activity at 100 µM [10]: 89%; remaining activity at 100 µM [11]: 79%; remaining activity at 100 µM [12]: 95%; remaining activity at 100 µM [13]: 100%
